{"source": "ChEMBL document CHEMBL6120970", "about": "“Discovery and Functional Characterization of a Potent, Selective, and Metabolically Stable PROTAC of the Protein Kinases DYRK1A and DYRK1B” (J Med Chem, 2024)", "key": {"[1]": {"target": "T1, Protein cereblon/Dual specificity tyrosine-phosphorylation-regulated kinase 1B (Homo sapiens) (UniProt Q9Y463+Q96SW2)", "assay": "PROTAC activity at CRBN/HibiT-tagged DYRK1B in Flp-In-T-REx-293 cells assessed as induction of degradation of DYRK1B by measuring maximum efficacy at 1 uM measured after 24 hrs by NanoBiT luciferase assay relative to control", "format": "cell-based"}, "[2]": {"target": "T2, Protein cereblon/Dual specificity tyrosine-phosphorylation-regulated kinase 1A (Homo sapiens, UniProt Q13627+Q96SW2)", "assay": "PROTAC activity at CRBN/HibiT-tagged DYRK1A in Flp-In-T-REx-293 cells assessed as induction of degradation of DYRK1A at 100 to 300 nM by measured after 24 hrs by NanoBiT luciferase assay", "format": "cell-based", "conditions": "dose 100-300 nM"}, "[3]": {"target": "T1, Protein cereblon/Dual specificity tyrosine-phosphorylation-regulated kinase 1B (Homo sapiens)", "assay": "PROTAC activity at CRBN/DYRK1B in HEK293 cells assessed as induction of degradation of DYRK1B by measuring maximum efficacy at 1 to 10000 nM incubated for 24 hrs relative to control", "format": "cell-based", "conditions": "dose 1-10000 nM"}, "[4]": {"target": "T2, Protein cereblon/Dual specificity tyrosine-phosphorylation-regulated kinase 1A", "assay": "PROTAC activity at CRBN/DYRK1A in HEK293 cells assessed as induction of degradation of DYRK1A at 1 to 10000 nM incubated for 24 hrs in presence of leucettine-41", "format": "cell-based", "conditions": "dose 1-10000 nM"}, "[5]": {"target": "T2, Protein cereblon/Dual specificity tyrosine-phosphorylation-regulated kinase 1A", "assay": "PROTAC activity at CRBN/DYRK1A in HEK293 cells assessed as induction of degradation of DYRK1A at 1 to 10000 nM incubated for 24 hrs in presence of CaNDY", "format": "cell-based", "conditions": "dose 1-10000 nM"}, "[6]": {"target": "T2, Protein cereblon/Dual specificity tyrosine-phosphorylation-regulated kinase 1A", "assay": "PROTAC activity at CRBN/DYRK1A in HEK293 cells assessed as induction of degradation of DYRK1A at 100 nM measured within 8 hrs by Western blot analysis", "format": "cell-based"}, "HEK293": {"test_system": "HEK293", "assay": "Downregulation of DYRK1B mRNA expression in HEK293 cells at 100 nM measured after 24 hrs by qRT-PCR analysis", "format": "functional, cell-based", "conditions": "Homo sapiens"}, "[7]": {"target": "T2, Protein cereblon/Dual specificity tyrosine-phosphorylation-regulated kinase 1A", "assay": "PROTAC activity at CRBN/DYRK1A in HEK293 cells assessed as induction of degradation of DYRK1A at 100 nM preincubated for 24 to 72 hrs followed by washout and subsequent addition of medium containing compounds measured for 48 hrs", "format": "cell-based", "conditions": "time 72-120 hrs"}, "[8]": {"target": "T1, Protein cereblon/Dual specificity tyrosine-phosphorylation-regulated kinase 1B (Homo sapiens)", "assay": "PROTAC activity at CRBN/DYRK1B in HEK293 cells overexpressing DYRK1B-p69 assessed as induction of degradation of DYRK1B at 1 uM measured after 24 hrs by Western blot analysis", "format": "cell-based"}, "[9]": {"target": "T2, Protein cereblon/Dual specificity tyrosine-phosphorylation-regulated kinase 1A", "assay": "PROTAC activity at CRBN/DYRK1A in HEK293 cells assessed as induction of degradation of DYRK1A at 100 nM pretreated with lenalidomide followed by compound addition and incubated for 8 hrs", "format": "cell-based"}, "[10]": {"target": "T1, Protein cereblon/Dual specificity tyrosine-phosphorylation-regulated kinase 1B (Homo sapiens)", "assay": "PROTAC activity at CRBN/DYRK1B in HEK293 cells assessed as induction of degradation of DYRK1B at 100 nM pretreated with lenalidomide followed by compound addition and incubated for 8 hrs", "format": "cell-based"}, "[11]": {"target": "T1, Protein cereblon/Dual specificity tyrosine-phosphorylation-regulated kinase 1B (Homo sapiens)", "assay": "PROTAC activity at CRBN/DYRK1B in HEK293 cells assessed as induction of degradation of DYRK1B at 100 nM pretreated with CB-5083 followed by compound addition and incubated for 8 hrs", "format": "cell-based"}, "[12]": {"target": "T2, Protein cereblon/Dual specificity tyrosine-phosphorylation-regulated kinase 1A", "assay": "PROTAC activity at CRBN/DYRK1A in HEK293 cells assessed as induction of degradation of DYRK1A at 100 nM pretreated with bortezomib followed by compound addition and incubated for 8 hrs", "format": "cell-based"}, "[13]": {"target": "T1, Protein cereblon/Dual specificity tyrosine-phosphorylation-regulated kinase 1B (Homo sapiens)", "assay": "PROTAC activity at CRBN/DYRK1B in Flp-In-T-REx-293 cells overexpressing GFP-DYRK1B assessed as initial rate of degradation at 1 uM measured upto 6 hrs by fluorescence based phase contrast microscopy analysis", "format": "cell-based"}, "[14]": {"target": "T2, Protein cereblon/Dual specificity tyrosine-phosphorylation-regulated kinase 1A", "assay": "PROTAC activity at CRBN/DYRK1A in human A549 cells assessed as induction of degradation of DYRK1A at 100 nM incubated for 8 hrs relative to control", "format": "cell-based"}, "[15]": {"target": "T2, Protein cereblon/Dual specificity tyrosine-phosphorylation-regulated kinase 1A", "assay": "PROTAC activity at CRBN/DYRK1A in human PANC-1 cells assessed as induction of degradation of DYRK1A at 100 nM incubated for 8 hrs", "format": "cell-based"}, "[16]": {"target": "T2, Protein cereblon/Dual specificity tyrosine-phosphorylation-regulated kinase 1A", "assay": "PROTAC activity at CRBN/DYRK1A in HEK293 cells expressing GFP-SF3B1 assessed as inhibition of SF3B1 phosphorylation at 10 nM measured for 48 hrs by Western blot analysis", "format": "cell-based"}, "[17]": {"target": "T1, Protein cereblon/Dual specificity tyrosine-phosphorylation-regulated kinase 1B (Homo sapiens)", "assay": "PROTAC activity at CRBN/DYRK1B in HEK293 cells assessed as induction of degradation of DYRK1B at 100 nM incubated for 24 hrs", "format": "cell-based"}, "[18]": {"target": "T1, Protein cereblon/Dual specificity tyrosine-phosphorylation-regulated kinase 1B (Homo sapiens)", "assay": "PROTAC activity at CRBN/DYRK1B in SH-SY5Y cells assessed as induction of degradation of DYRK1B at 100 nM incubated for 24 hrs", "format": "cell-based"}, "SH-SY5Y [19]": {"test_system": "SH-SY5Y", "assay": "Cytotoxicity against human SH-SY5Y cells assessed as reduction in cell viability at 100 nM measured upto 96 hrs by real-time cell analysis", "format": "functional, cell-based"}, "SH-SY5Y [20]": {"test_system": "SH-SY5Y", "assay": "Cytotoxicity against human SH-SY5Y cells assessed as reduction in cell viability at 100 nM measured upto 96 hrs in presence of cisplatin by real-time cell analysis", "format": "functional, cell-based"}, "[21]": {"assay": "Solubility of the compound in PBS buffer", "format": "physicochemical"}, "[22]": {"assay": "Solubility of the compound in FaSSIF buffer", "format": "physicochemical"}, "[23]": {"assay": "Solubility of the compound in FeSSIF buffer", "format": "physicochemical"}, "[24]": {"assay": "Half life in mouse plasma", "format": "ADME, cell-free"}, "[25]": {"assay": "Metabolic stability in rat liver microsomes assessed as half life", "format": "ADME, Microsome"}, "[26]": {"assay": "Metabolic stability in rat liver microsomes assessed as intrinsic clearance", "format": "ADME, Microsome", "conditions": "read-out: CLH"}, "[27]": {"assay": "Metabolic stability in human liver microsomes assessed as intrinsic clearance", "format": "ADME, Microsome", "conditions": "read-out: CLH"}, "[28]": {"assay": "Half life in mouse blood", "format": "ADME, tissue-based"}, "[29]": {"assay": "Permeability of the compound by PAMPA method", "format": "ADME", "conditions": "read-out: permeability"}, "[30]": {"assay": "Permeability of the compound in human Caco-2 cells across basolateral side to apical side", "format": "ADME, cell-based", "conditions": "read-out: permeability"}, "[31]": {"target": "T2, Protein cereblon/Dual specificity tyrosine-phosphorylation-regulated kinase 1A", "assay": "Competitive binding affinity to CRBN/DYRK1A (unknown origin) assessed as residence time", "format": "protein assay"}, "[32]": {"assay": "Half life in mouse at 1 mg/kg, iv administered as single dose", "format": "ADME, organism-based", "conditions": "in vivo"}, "[33]": {"assay": "AUC infinity in mouse at 1 mg/kg, iv administered as single dose", "format": "ADME, organism-based", "conditions": "in vivo"}, "[34]": {"assay": "MRT in mouse at 1 mg/kg, iv administered as single dose", "format": "ADME, organism-based", "conditions": "in vivo"}, "[35]": {"assay": "AUC last in mouse at 10 mg/kg, ip administered as single dose", "format": "ADME, organism-based", "conditions": "in vivo"}, "[36]": {"assay": "AUC infinity in mouse at 10 mg/kg, ip administered as single dose", "format": "ADME, organism-based", "conditions": "in vivo"}, "[37]": {"assay": "Tmax in mouse at 10 mg/kg, po administered as single dose", "format": "ADME, organism-based", "conditions": "in vivo"}, "[38]": {"assay": "Half life in mouse at 10 mg/kg, po administered as single dose", "format": "ADME, organism-based", "conditions": "in vivo"}, "[39]": {"assay": "MRT in mouse at 10 mg/kg, po administered as single dose", "format": "ADME, organism-based", "conditions": "in vivo"}, "[40]": {"assay": "Oral availability in mouse at 10 mg/kg administered as single dose", "format": "ADME, organism-based", "conditions": "in vivo"}}, "note": "Calls of active or inactive are those of the source. The rule behind the calls is not given here."}
{"smiles": "Cc1nc2ccc(-c3ccnc(N)c3)nc2n1-c1ccc(N2CCN(CC#Cc3ccc(N4CCC(C(=O)N5CCC(n6cc(CNc7cccc8c7C(=O)N(C7CCC(=O)NC7=O)C8=O)cn6)CC5)CC4)nc3)CC2)c(F)c1", "note": "(stereo unspecified)", "values": [{"measurement": "Emax", "setting": "[1]", "value": 66, "unit": "%"}, {"measurement": "Activity", "setting": "[2]", "value": "Active"}, {"measurement": "Emax", "setting": "[3]", "value": 50, "unit": "%"}, {"measurement": "Activity", "setting": "[4]", "value": "inactive"}, {"measurement": "Activity", "setting": "[5]", "value": "inactive"}, {"measurement": "Activity", "setting": "[6]", "value": "Active"}, {"measurement": "Activity", "setting": "HEK293", "value": "inactive"}, {"measurement": "Activity", "setting": "[7]", "value": "Active"}, {"measurement": "Activity", "setting": "[8]", "value": "Active"}, {"measurement": "Activity", "setting": "[9]", "value": "inactive"}, {"measurement": "Activity", "setting": "[10]", "value": "inactive"}, {"measurement": "Activity", "setting": "[11]", "value": "inactive"}, {"measurement": "Activity", "setting": "[12]", "value": "inactive"}, {"measurement": "Activity", "setting": "[13]", "value": 1.16, "unit": "h⁻¹"}, {"measurement": "Activity", "setting": "[14]", "value": 100, "unit": "%"}, {"measurement": "Activity", "setting": "[15]", "value": "Active; Compound Showed Partial Degradation"}, {"measurement": "Activity", "setting": "[16]", "value": "Active"}, {"measurement": "Activity", "setting": "[17]", "value": "Active"}, {"measurement": "Activity", "setting": "[18]", "value": "Active"}, {"measurement": "Activity", "setting": "SH-SY5Y [19]", "value": "Active"}, {"measurement": "Activity", "setting": "SH-SY5Y [20]", "value": "Active; Compound Showed Moderate Toxicity"}, {"measurement": "solubility", "setting": "[21]", "value": "< 0.009", "unit": "µM"}, {"measurement": "solubility", "setting": "[22]", "value": 0.16, "unit": "µM"}, {"measurement": "solubility", "setting": "[23]", "value": 2.09, "unit": "µM"}, {"measurement": "half-life", "setting": "[24]", "value": 6.97, "unit": "h"}, {"measurement": "half-life", "setting": "[25]", "value": 1.64, "unit": "h"}, {"measurement": "CLint scaled", "setting": "[26]", "value": 14, "unit": "mL/min/kg"}, {"measurement": "CLint scaled", "setting": "[27]", "value": 10.1, "unit": "mL/min/kg"}, {"measurement": "half-life", "setting": "[28]", "value": 15.2, "unit": "h"}, {"measurement": "Papp", "setting": "[29]", "value": "< 0.005", "unit": "×10⁻⁶ cm/s"}, {"measurement": "Papp B→A", "setting": "[30]", "value": "< 0.243", "unit": "×10⁻⁶ cm/s"}, {"measurement": "TIME", "setting": "[31]", "value": 0.383, "unit": "h"}, {"measurement": "half-life", "setting": "[32]", "value": 3.33, "unit": "h"}, {"measurement": "AUC(0-inf)", "setting": "[33]", "value": 2470, "unit": "ng·h/mL"}, {"measurement": "MRT", "setting": "[34]", "value": 1.4, "unit": "h"}, {"measurement": "AUC(0-t)", "setting": "[35]", "value": 26300, "unit": "ng·h/mL"}, {"measurement": "AUC(0-inf)", "setting": "[36]", "value": 27100, "unit": "ng·h/mL"}, {"measurement": "Tmax", "setting": "[37]", "value": 0.5, "unit": "h"}, {"measurement": "half-life", "setting": "[38]", "value": 2.11, "unit": "h"}, {"measurement": "MRT", "setting": "[39]", "value": 2.51, "unit": "h"}, {"measurement": "bioavailability", "setting": "[40]", "value": 0.25, "unit": "%"}]}
